Experiments:
Shh-LIGHT2 cells = assay: GLI-dependent reporter gene assay (RGA); assay type: cell-based; settings: for Inhibition of GLI-dependent reporter gene expression (in words): Shh-LIGHT2 cells
Protocol: using a three-fold dilution series starting from a concentration of 30 μM. Half-maximal inhibitory concentrations (IC50) were calculated using the Quattro software suite (Quattro Research, Planegg, Germany) or GraphPad Prism 7 (GraphPad, USA). […]
(§1) GLI-dependent reporter gene assay
(§2) Shh-LIGHT2 cells were seeded (2.5×10^4 per well) in 96-well plates. After incubation for 16 h, medium was replaced by low serum-containing medium (0.5% FCS) supplemented with 1.5 μM purmorphamine and various concentrations of the compounds or DMSO as a control and cells were incubated for 48 h. […]

[1] = tested on: Ptch1 and Gli1 expression in C3H/10T1/2 cells; assay: RT-qPCR of Hh target genes; assay type: cell-based, mouse; settings: 1.5 μM purmorphamine, 96 h
Protocol: three times with PBS and mounted on glass slides using Aqua Polymount (Polysciences Inc).
Images were acquired as Z-sections with Leica SP5 confocal microscope using a 63x 1.40 NA
Oil objective (Leica Microsystems CMS GmbH, Mannheim, Germany). Image analysis was
performed using the software ImageJ. Briefly, Z-stacks were converted to intensity sum
projections, after previous background subtraction. For quantification, cilia were identified and
marked based on the acetylated-tubulin staining intensities and the intensities of the anti-
Smoothened antibody were measured within these areas. Results were visualized and
significances were assessed using an unpaired t-test (confidence interval of 95%) with the
software GraphPad Prism 7, GraphPad software, USA). Three independent biological
replicates were performed and for each replicate at least 100 cilia per condition were analyzed.
Reverse transcription- quantitative PCR (RT-qPCR)
C3H10T1/2 cells were seeded (1×10^5 per well) in 6-well plates. 48 h later cells were treated […]
DNase I digestion step. The concentration of purified RNA was determined by means of the […]
QuantiTect Reverse Transcription Kit (Qiagen) according to the manufacturer’s protocol. […]
determined by means of quantitative RT-PCR using the QuantiFast SYBR Green PCR Kit […]
genes. The expression levels of Ptch1 and Gli1 were determined using the 2−ΔΔCt method.[6] […]

SMO = target: T1, SMO (Mus musculus, UniProt P56726); assay: SMO binding assay (BODIPY-cyclopamine displacement); assay type: cell-based; settings: HEK293T cells expressing SMO, 5 nM BODIPY-cyclopamine
T1 construct: expressed in transfected cells; host or cells: HEK293T
T1 sequence (P56726 33-793): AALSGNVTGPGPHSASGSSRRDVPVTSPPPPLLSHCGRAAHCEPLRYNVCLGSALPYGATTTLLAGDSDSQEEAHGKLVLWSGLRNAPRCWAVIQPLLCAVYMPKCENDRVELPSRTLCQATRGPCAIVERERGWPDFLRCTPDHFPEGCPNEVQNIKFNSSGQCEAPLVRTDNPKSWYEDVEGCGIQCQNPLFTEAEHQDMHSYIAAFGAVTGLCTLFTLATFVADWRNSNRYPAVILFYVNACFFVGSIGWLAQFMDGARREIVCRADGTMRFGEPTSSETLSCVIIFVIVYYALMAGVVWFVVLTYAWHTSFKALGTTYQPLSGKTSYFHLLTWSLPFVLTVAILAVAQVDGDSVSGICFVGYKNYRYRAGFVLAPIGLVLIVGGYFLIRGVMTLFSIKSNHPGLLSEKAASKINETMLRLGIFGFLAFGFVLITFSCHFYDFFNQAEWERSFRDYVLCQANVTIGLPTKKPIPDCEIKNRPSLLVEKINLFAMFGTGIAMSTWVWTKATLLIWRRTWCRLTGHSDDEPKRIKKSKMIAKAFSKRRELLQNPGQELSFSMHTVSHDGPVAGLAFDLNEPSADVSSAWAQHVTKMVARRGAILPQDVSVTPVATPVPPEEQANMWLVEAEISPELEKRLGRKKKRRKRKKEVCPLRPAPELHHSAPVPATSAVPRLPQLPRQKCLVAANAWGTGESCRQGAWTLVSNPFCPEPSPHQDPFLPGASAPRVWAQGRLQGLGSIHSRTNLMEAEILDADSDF
Protocol: Supplementary Figure S2. […] HEK293T cells […]
ectopically expressing SMO were treated with different concentrations of 7a or Vismodegib and DMSO as controls in the presence of BODIPY-cyclopamine (5 nM) for 5 h. The graph […]
activated cell sorting analysis. Data are mean values of three independent experiments (n=3) ± […]
using a three-fold dilution series starting from a concentration of 30 μM. Half-maximal inhibitory concentrations (IC50) were calculated using the Quattro software suite (Quattro Research, Planegg, Germany) or GraphPad Prism 7 (GraphPad, USA).
The effect of test compounds on the viability of C3H/10T1/2 cells was determined by CellTiter-Glo Luminescence cell viability assay (Promega). Cells were treated as described for the osteogenesis assay prior to addition of the CellTiter-Glo® reagent according to manufacturer’s protocol. Compounds causing at least a 50% reduction in the osteogenesis assay and retaining cell viability of at least 80% were considered as hits. Dose-response analyses were performed for all hit compounds using a three-fold dilution series starting from a concentration of 30 μM. Half-maximal inhibitory concentrations (IC50) were calculated using the Quattro software suite (Quattro Research GmbH).
as §1
as §2, with “h. Firefly and Renilla luciferase activities were determined by means of the Dual-Luciferase® Reporter Assay System (Promega) according to the manufacturer’s protocol and luminescence was measured using the Spark plate reader (Tecan,” for “h.”
HEK293T cells were seeded (1.5×10^4 per well) on poly-D-lysine-coated coverslips placed in a 24-well plate. 24 h later cells were transfected with the SMO-expressing plasmid (pGEN-mSMO) using FuGENE HD (Promega) according to the manufacturer’s protocol. […]

IC50 (Shh-LIGHT2 cells; Shh Light2, Figure 2a, mean of three independent experiments) [nM] | Displacement of BODIPY-cyclopamine from SMO (in words) (SMO; listed as 7 a) | SMILES | Inhibition of GLI-dependent reporter gene expression (in words) (Shh-LIGHT2 cells) | Expression of the Hh target genes Ptch1 and Gli1 (in words) [1] | Displacement of BODIPY-cyclopamine from SMO (in words) (SMO) | Expression of the Hh target genes Ptch1 and Gli1 (remaining) ([1]; 5 μM, purmorphamine-treated cells = 100 %)
 |  | COC(=O)C1(C(CC(=O)c2cccnc2)c2ccccc2)N=C(c2ccc(Br)cc2)C2C(=O)N(C)C(=O)C21 (centres unmarked) [7l] | did not suppress | only slightly reduced | partial decrease | 
1600 | did not displace | COC(=O)C1(C(CC(=O)c2ccccc2)c2ccccc2)N=C(c2ccc(Br)cc2)C2C(=O)N(C)C(=O)C21 (centres unmarked) [7a] | did not inhibit |  | does not displace | approx. 50%

Reference: PMC9313812, “The Pseudo‐Natural Product Rhonin Targets RHOGDI” (Angewandte Chemie (International Ed. in English), 2022)
